Measured values as given in patent publication US6867207B2, “IL-5 inhibiting 6-azauracil derivatives” (Janssen Pharmaceutica N.V., priority 1997, dated 2005).

System: IL-5 production
Assay: In vitro inhibition of IL-5 production in human blood (phytohemagglutinin-stimulated whole blood, ELISA)
Type: cell-based
Details: test dose 1×10^−5 M (values marked *), 48 hours, read-out: % inh. (percentage inhibition of IL-5 production), marked with *
Description: In Vitro Inhibition of IL-5 Production in Human Blood
Human Whole Blood Stimulation
Peripheral blood from healthy male donors was drawn into heparinized syringes (12.5 U heparin/ml). Blood samples were three-fold diluted in RMPI 1640 medium (Life Technologies, Belgium) supplemented with 2 mM L-glutamine, 100 U/ml penicillin and 100 μg/ml streptomycin, and 300 μl fractions were distributed in 24-well multidisc plates. Blood samples were preincubated (60 minutes at 37° C.) in a humidified 6% CO2-atmosphere with 100 μl of drug solvent (final concentration 0.02% dimethylsulfoxide in RPMI 1640) or with 100 μl of an appropriate dose of test compound before being stimulated by the addition of 100 μl of phytohemagglutinin HA17 (Murex, UK) at a final concentration of 2 μg/ml. After 48 hours, cell-free supernatant fluids were collected by centrifugation and stored at −70° C. until tested for the presence of IL-5.
IL-5 measurements were conducted as described in Van Wauwe et al. (1996, Inflamm Res, 45, 357-363) on page 358 using ELISA.
Table 9 lists the percentage inhibition of IL-5 production (column “% inh”) at a test dose of 1×10^−6 M, or in case the percentage inhibition is marked with an “*” 1×10^−5 M, the compounds of the present invention.

| Compound | inhibition at 10 µM |
| --- | --- |
| O=c1cnn(-c2ccc(C(c3ccc(Cl)cc3)N3CCC(O)CC3)c(Cl)c2)c(=O)[nH]1 (racemic) [Compound 119, (±)-2-[3-chloro-4-[(4-chlorophenyl)(4-hydroxy-1-piperidinyl)methyl]phenyl]-1,2,4-triazine-3,5(2H,4H)-dione] | 72% |

Same assay, conditions: test dose 1×10^−6 M, 48 hours

| Compound | % inh. (percentage inhibition of IL-5 production) |
| --- | --- |
| CCc1sc(C(c2ccc(Cl)cc2)c2c(Cl)cc(-n3ncc(=O)[nH]c3=O)cc2Cl)nc1-c1ccccc1 (racemic) [Comp 224] | 95% |
| O=c1cnn(-c2cc(Cl)c(C(c3ccc(Cl)cc3)c3nnc(-c4ccccc4[N+](=O)[O-])o3)c(Cl)c2)c(=O)[nH]1 (racemic) [Compound 210] | 79% |
| CN1CCC(c2nnc(C(c3ccc(Cl)cc3)c3c(Cl)cc(-n4ncc(=O)[nH]c4=O)cc3Cl)o2)CC1 (racemic) [Compound 195] | 7% |
| COCCNCc1sc(C(c2ccc(Cl)cc2)c2c(Cl)cc(-n3ncc(=O)[nH]c3=O)cc2Cl)nc1-c1ccccc1 (racemic) [Comp 316] | 85% |
| O=C(O)Cc1sc(C(c2ccc(Cl)cc2)c2c(Cl)cc(-n3ncc(=O)[nH]c3=O)cc2Cl)nc1-c1ccccc1 (racemic) [Comp 300] | 27% |
| CCOC(=O)N1CCN(c2ccnc(SC(c3ccc(Cl)cc3)c3c(Cl)cc(-n4ncc(=O)[nH]c4=O)cc3Cl)n2)CC1 (racemic) [Compound 352] | 85% |
| Cc1cccc(-c2nc(C(c3ccc(Cl)cc3)c3c(Cl)cc(-n4ncc(=O)[nH]c4=O)cc3Cl)cs2)c1 (racemic) [Compound 372] | 86% |
| CCc1sc(C(C)(c2ccc(Cl)c(Cl)c2)c2c(Cl)cc(-n3ncc(=O)[nH]c3=O)cc2Cl)nc1-c1ccccc1 (racemic) [Comp 251] | 90% |
| O=c1cnn(-c2cc(Cl)c(C(c3ccc(Cl)cc3)c3nc(-c4c(Cl)cccc4Cl)cs3)c(Cl)c2)c(=O)[nH]1 (racemic) [Comp 264] | 79% |
| O.O=c1cnn(-c2cc(Cl)c(C(c3ccc(Cl)cc3)c3nnc(-c4ccccc4Cl)o3)c(Cl)c2)c(=O)[nH]1 (racemic) [Compound 163] | 90% |
| Cc1cc(NC(c2ccc(Cl)cc2)c2ccc(-n3ncc(=O)[nH]c3=O)cc2Cl)no1 (racemic) [Compound 40] | 31% |
| O=c1cnn(-c2cc(Cl)c(C(Sc3nccc(-c4ccccc4)n3)c3ccc(Cl)c(C(F)(F)F)c3)c(Cl)c2)c(=O)[nH]1 (racemic) [Compound 342] | 93% |
| Cc1nc(-c2ccccc2)c(C(c2ccc(Cl)cc2)c2ccc(-n3ncc(=O)[nH]c3=O)cc2Cl)s1 (racemic) [Compound 134] | 95% |
| Cc1ccccc1-c1nc(C(c2ccc(Cl)cc2)c2c(Cl)cc(-n3ncc(=O)[nH]c3=O)cc2Cl)cs1 (racemic) [Compound 374] | 94% |
| O=c1cnn(-c2cc(Cl)c(C(c3ccc(Cl)cc3)c3nc(-c4cccc(Cl)c4Cl)cs3)c(Cl)c2)c(=O)[nH]1 (racemic) [Comp 252] | 80% |
| Cc1sc(C(C)(c2ccc(Cl)c(C(F)(F)F)c2)c2c(Cl)cc(-n3ncc(=O)[nH]c3=O)cc2Cl)nc1-c1ccccc1 (racemic) [Comp 234] | 83% |
| CCOC(=O)c1csc(C(c2ccc(Cl)cc2)c2c(Cl)cc(-n3ncc(=O)[nH]c3=O)cc2Cl)n1 (racemic) [Comp 27] | 64% |
| O=c1cnn(-c2ccc(C(c3ccc(Cl)cc3)c3nnc(-c4ccccc4)o3)c(Cl)c2)c(=O)[nH]1 (racemic) [Comp 101] | 66% |
| CNCc1sc(C(c2ccc(Cl)cc2)c2c(Cl)cc(-n3ncc(=O)[nH]c3=O)cc2Cl)nc1-c1ccccc1.Cl.O.O.O (racemic) [Comp 296] | 92% |
| O=c1cnn(-c2cc(Cl)c(C(c3ccc(Cl)cc3)c3nc4ccccc4s3)c(Cl)c2)c(=O)[nH]1 (stereo not drawn) [Comp 421] | 86% |
| O=c1cnn(-c2cc(Cl)c(C(c3ccc(Cl)cc3)c3nc(-c4ccc(Br)cc4)cs3)c(Cl)c2)c(=O)[nH]1 (racemic) [Comp 294] | 85% |

| Compound | % inh. (percentage inhibition of IL-5 production) |
| --- | --- |
| CC(c1ccc(Cl)c(C(F)(F)F)c1)(c1nc(-c2ccccc2)cs1)c1ccc(-n2ncc(=O)[nH]c2=O)cc1Cl (racemic) [Comp 239] | 72% |
| CN(C)CCc1sc(C(c2ccc(Cl)cc2)c2c(Cl)cc(-n3ncc(=O)[nH]c3=O)cc2Cl)nc1-c1ccccc1 (racemic) [Comp 279] | 92% |
| N#CCc1nnc(C(c2ccc(Cl)cc2)c2c(Cl)cc(-n3ncc(=O)[nH]c3=O)cc2Cl)o1 (racemic) [Compound 179] | 21% |
| Cc1c(NS(N)(=O)=O)cccc1-c1nnc(C(c2ccc(Cl)cc2)c2c(Cl)cc(-n3ncc(=O)[nH]c3=O)cc2Cl)o1 (racemic) [Compound 218] | 4% |
| O=c1cnn(-c2cc(Cl)c(C(Sc3nccc(NC(CO)CO)n3)c3ccc(Cl)cc3)c(Cl)c2)c(=O)[nH]1 (racemic) [Compound 361] | 28% |
| Cc1oc(C(c2ccc(Cl)cc2)c2c(Cl)cc(-n3ncc(=O)[nH]c3=O)cc2Cl)nc1-c1ccc(F)cc1 (stereo not drawn) [Comp 431] | 67% |
| O=c1cnn(-c2ccc(C(SCc3ccco3)c3ccc(Cl)cc3)c(Cl)c2)c(=O)[nH]1 (racemic) [Compound 64] | 64% |
| Cc1cc(C(C)(c2ccc(Cl)c(C(F)(F)F)c2)c2nc(-c3ccccc3)cs2)c(Cl)cc1-n1ncc(=O)[nH]c1=O (racemic) [Comp 235] | 79% |
| O=c1cnn(-c2ccc(C(c3ccc(Cl)cc3)n3cncn3)c(Cl)c2)c(=O)[nH]1 (racemic) [Comp 97] | 26% |
| Nc1ccc(SC(c2ccc(Cl)c(C(F)(F)F)c2)c2c(Cl)cc(-n3ncc(=O)[nH]c3=O)cc2Cl)cc1 (stereo not drawn) [Compound 393] | 93% |
| Cc1sc(C(c2ccc(Cl)cc2)c2c(Br)cc(-n3ncc(=O)[nH]c3=O)cc2Br)nc1-c1ccccc1 (racemic) [Comp 330] | 94% |
| COc1ccccc1-c1csc(C(c2ccc(Cl)cc2)c2c(Cl)cc(-n3ncc(=O)[nH]c3=O)cc2Cl)n1 (racemic) [Comp 263] | 92% |
| O=c1cnn(-c2cc(Cl)c(C(c3ccc(Cl)cc3)c3nc(-c4cccc(F)c4)cs3)c(Cl)c2)c(=O)[nH]1 (single isomer, unassigned) [Comp 318] | 81% |
| O=c1cnn(-c2cc(Cl)c(C(Sc3nc(-c4ccccc4)no3)c3ccc(Cl)cc3)c(Cl)c2)c(=O)[nH]1 (racemic) [Compound 408] | 88% |
| O=c1cnn(-c2cc(Cl)c(C(c3ccc(Cl)cc3)c3nc(-c4ccccc4)c(CN4CCC(N5CCCCC5)CC4)s3)c(Cl)c2)c(=O)[nH]1 (racemic) [Comp 321] | 92% |
| Cc1nc(SC(c2ccc(Cl)cc2)c2ccc(-n3ncc(=O)[nH]c3=O)cc2Cl)nc(O)c1CC1CC1 (racemic) [Compound 338] | −15% |
| Cc1cc(-n2ncc(=O)[nH]c2=O)cc(C)c1C(c1ccc(Cl)c(Cl)c1)c1nc(-c2ccccc2)cs1 (racemic) [Comp 270] | 86% |
| O=c1cnn(-c2cc(Cl)c(C(c3ccc(Cl)cc3)c3nnc(-c4ccccc4)o3)c(Cl)c2)c(=O)[nH]1 (stereo not drawn) [Compound 189, (A)-2-[3,5-dichloro-4-[(4-chlorophenyl)(5-phenyl-1,3,4-oxadizol-2-yl)methyl]phenyl]-1,2,4-triazine-3,5(2H,4H)-dione] | 82% |
| COc1ccc(-c2ccnc(SC(c3ccc(Cl)cc3)c3ccc(-n4ncc(=O)[nH]c4=O)cc3Cl)n2)cc1 (racemic) [Compound 79] | 74% |
| Cc1sc(NC(c2ccc(Cl)cc2)c2ccc(-n3ncc(=O)[nH]c3=O)cc2Cl)nc1-c1ccccc1 (racemic) [Compound 412] | 16% |

Same assay, conditions: test dose 1×10^−6 M, 48 hours, read-out: % inh. (percentage inhibition of IL-5 production)

| Compound | inhibition at 1 µM |
| --- | --- |
| [N-]=[N+]=Nc1cccc(-c2nnc(C(c3ccc(Cl)cc3)c3c(Cl)cc(-n4ncc(=O)[nH]c4=O)cc3Cl)o2)c1 (racemic) [Compound 194, (±)-2-[4-[[5-(3-azidophenyl)-1,3,4-oxadiazol-2-yl](4-chlorophenyl)methyl]-3,5-dichlorophenyl]-1,2,4-triazine-3,5(2H,4H)-dione] | 83% |
| O=c1cnn(-c2cc(Cl)c(C(Sc3nccc(N4CCNCC4)n3)c3ccc(Cl)cc3)c(Cl)c2)c(=O)[nH]1 (racemic) [Compound 360, (±)-2-[3,5-dichloro-4-[(4-chlorophenyl)[[4-(1-piperazinyl)-2-pyrimidinyl]thio]methyl]phenyl]-1,2,4-triazine-3,5(2H,4H)-dione monohydrate] | 84% |
| O=c1cnn(-c2cc(Cl)c(C(c3ccc(Cl)cc3)c3nc(-c4ccccc4)cs3)c(Cl)c2)c(=O)[nH]1 (racemic) [Compound 38, (±)-2-[3,5-dichloro-4-[(4-chlorophenyl)(4-phenyl-2-thiazolyl)methyl]phenyl]-1,2,4-triazine-3,5(2H,4H)-dione] | 92% |
